ChEMBL document CHEMBL1275578, “Genotypic versus phenotypic characterization, with respect to beta-lactam susceptibility, of Haemophilus influenzae isolates exhibiting decreased susceptibility to beta-lactam resistance markers” (2009)
Converted amounts (≈) assume the structure as drawn.

Experiments:
Assay type in all cases: functional
[1] = test system: Haemophilus influenzae; experiment: Antimicrobial activity against beta-lactamase positive, ampicillin-clavulanic acid resistant Haemophilus influenzae expressing […] mutant gene assessed as resistant isolates by microdilution method
[2] = test system: Haemophilus influenzae; experiment: Antimicrobial activity against beta-lactamase negative, ampicillin-resistant Haemophilus influenzae expressing […] mutant gene assessed as resistant isolates by microdilution method
[3] = test system: Haemophilus influenzae; experiment: Antimicrobial activity against beta-lactamase negative, ampicillin-resistant Haemophilus influenzae expressing […] mutant gene by microdilution method
[4] = test system: Haemophilus influenzae; experiment: Antimicrobial activity against beta-lactamase positive Haemophilus influenzae expressing […] gene assessed as resistant isolates by microdilution method
[5] = test system: Haemophilus influenzae; experiment: Antimicrobial activity against beta-lactamase positive Haemophilus influenzae expressing […] gene by microdilution method
[6] = test system: Haemophilus influenzae; experiment: Antimicrobial activity against beta-lactamase negative Haemophilus influenzae expressing […] gene assessed as resistant isolates by microdilution method
[7] = test system: Haemophilus influenzae; experiment: Antimicrobial activity against beta-lactamase negative Haemophilus influenzae expressing […] gene by microdilution method
[8] = test system: Haemophilus influenzae; experiment: Antimicrobial activity against beta-lactamase positive, ampicillin-clavulanic acid resistant Haemophilus influenzae expressing […] mutant gene by microdilution method
[9] = test system: Haemophilus influenzae; experiment: Antimicrobial activity against beta-lactamase positive, ampicillin-clavulanic acid resistant Haemophilus influenzae expressing […] mutant gene assessed as resistant isolates by microdilution method in presence of beta-lactamase inhibitor clavulanic acid
[10] = test system: Haemophilus influenzae; experiment: Antimicrobial activity against beta-lactamase positive, ampicillin-clavulanic acid resistant Haemophilus influenzae expressing […] mutant gene by microdilution method in presence of beta-lactamase inhibitor clavulanic acid
[11] = test system: Haemophilus influenzae; experiment: Antimicrobial activity against beta-lactamase negative, ampicillin-resistant Haemophilus influenzae expressing […] mutant gene assessed as resistant isolates by microdilution method in presence of beta-lactamase inhibitor clavulanic acid
[12] = test system: Haemophilus influenzae; experiment: Antimicrobial activity against beta-lactamase negative, ampicillin-resistant Haemophilus influenzae expressing […] mutant gene by microdilution method in presence of beta-lactamase inhibitor clavulanic acid
[13] = test system: Haemophilus influenzae; experiment: Antimicrobial activity against beta-lactamase positive Haemophilus influenzae expressing […] gene assessed as resistant isolates by microdilution method in presence of beta-lactamase inhibitor clavulanic acid
[14] = test system: Haemophilus influenzae; experiment: Antimicrobial activity against beta-lactamase positive Haemophilus influenzae expressing […] gene by microdilution method in presence of beta-lactamase inhibitor clavulanic acid
[15] = test system: Haemophilus influenzae; experiment: Antimicrobial activity against beta-lactamase negative Haemophilus influenzae expressing […] gene by microdilution method in presence of beta-lactamase inhibitor clavulanic acid

SMILES | Activity [1] [%] | Activity [2] [%] | MIC50 [3] [µg/mL] | MIC90 [3] [µg/mL] | Activity [4] [%] | MIC50 [5] [µg/mL] | MIC90 [5] [µg/mL] | Activity [6] [%] | MIC50 [7] [µg/mL] | MIC90 [7] [µg/mL] | MIC50 [8] [µg/mL] | MIC90 [8] [µg/mL] | also measured
CC1(C)S[C@@H]2[C@H](NC(=O)[C@H](N)c3ccccc3)C(=O)N2[C@H]1C(=O)O [AMPICILLIN] | 95.5 | 98.3 | 2 (≈ 5.72 µM) | 4 (≈ 11.4 µM) | 100 | ≥ 128 | ≥ 128 | 30 | 1 (≈ 2.86 µM) | 2 (≈ 5.72 µM) | – | – | –
CO/N=C(\C(=O)N[C@@H]1C(=O)N2C(C(=O)O)=C(COC(N)=O)CS[C@H]12)c1ccco1 [CEFUROXIME] | 45.4 | 48.8 | 4 (≈ 9.43 µM) | 16 (≈ 37.7 µM) | 19 | 2 (≈ 4.71 µM) | 8 (≈ 18.9 µM) | 20 | 1 (≈ 2.36 µM) | 8 (≈ 18.9 µM) | 4 | 16 | –
C=CC1=C(C(=O)O)N2C(=O)[C@@H](NC(=O)/C(=N\O)c3csc(N)n3)[C@H]2SC1 [CEFDINIR] | 52.3 | 57 | 2 (≈ 5.06 µM) | 8 (≈ 20.2 µM) | 33.3 | 0.5 (≈ 1.26 µM) | 4 (≈ 10.1 µM) | 40 | 1 (≈ 2.53 µM) | 4 (≈ 10.1 µM) | 2 | 4 | –
N[C@@H](C(=O)N[C@@H]1C(=O)N2C(C(=O)O)=C(Cl)CS[C@H]12)c1ccccc1 [CEFACLOR ANHYDROUS] | 86.4 | 70.2 | 32 (≈ 87 µM) | – | 76.2 | 32 (≈ 87 µM) | ≥ 128 | 40 | 8 (≈ 21.8 µM) | 32 (≈ 87 µM) | 32 | 64 | –
CC1(C)S[C@@H]2[C@H](NC(=O)[C@H](N)c3ccc(O)cc3)C(=O)N2[C@H]1C(=O)O [AMOXICILLIN] | – | – | – | – | – | – | – | – | – | – | – | – | Activity [9]: 25%; MIC50 [10]: 4 µg/mL; MIC90 [10]: 8 µg/mL; Activity [11]: 9.9%; MIC50 [12]: 2 µg/mL; MIC90 [12]: 4 µg/mL; Activity [13]: 4.8%; MIC50 [14]: 2 µg/mL; MIC90 [14]: 4 µg/mL; MIC50 [15]: 0.5 µg/mL; MIC90 [15]: 4 µg/mL
CO/N=C(\C(=O)N[C@@H]1C(=O)N2C(C(=O)OCOC(=O)C(C)(C)C)=C(/C=C\c3scnc3C)CS[C@H]12)c1csc(N)n1 [CEFDITOREN PIVOXIL] | – | – | 0.06 (≈ 0.0967 µM) | 0.06 (≈ 0.0967 µM) | – | 0.03 (≈ 0.0483 µM) | 0.06 (≈ 0.0967 µM) | – | 0.03 (≈ 0.0483 µM) | 0.06 (≈ 0.0967 µM) | 0.03 | 0.06 | –
CO/N=C(\C(=O)N[C@@H]1C(=O)N2C(C(=O)O)=C(COC(C)=O)CS[C@H]12)c1csc(N)n1 [CEFOTAXIME] | 0 | 0.8 | 0.06 (≈ 0.132 µM) | 0.5 (≈ 1.1 µM) | 0 | 0.03 (≈ 0.0659 µM) | 0.06 (≈ 0.132 µM) | 0 | 0.03 (≈ 0.0659 µM) | 0.25 (≈ 0.549 µM) | 0.03 | 0.25 | –
